# Laboratory results published in patent publication US20230286958A1, “PLASMA KALLIKREIN INHIBITORS” (Merck Sharp & Dohme LLC, priority 2020, published 2023).
# Tests used:
# Human plasma kallikrein = Human plasma kallikrein (Homo sapiens (Human), UniProt P03952); assay: Kallikrein Assay (fluorogenic substrate Acetyl-K-P-R-AFC); format: biochemical; settings: Plasma Kallikrein (PKal)
# Method in brief: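 Ki is derived from IC50 with the Cheng-Prusoff equation, and IC50 from the inflection point of a four-parameter logistic curve. The rate of AFC release is read with 0.5 nM purified enzyme and […] substrate at room temperature or 37 °C.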
# human Factor XIa = human Factor XIa (Homo sapiens (Human), UniProt P03951); assay: Factor XIa Assay (fluorogenic substrate GPR-AFC); format: biochemical; settings: Factor XIa (FXIa)
# Chain of human Factor XIa (P03951 388-625 limits assumed): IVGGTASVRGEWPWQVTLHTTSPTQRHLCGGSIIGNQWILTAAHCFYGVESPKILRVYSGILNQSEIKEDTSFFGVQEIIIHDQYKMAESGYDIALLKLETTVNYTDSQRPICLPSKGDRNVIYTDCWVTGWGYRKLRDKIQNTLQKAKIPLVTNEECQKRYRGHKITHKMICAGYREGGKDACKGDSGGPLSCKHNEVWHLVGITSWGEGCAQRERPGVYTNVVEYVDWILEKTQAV
# Chain of human Factor XIa (P03951 19-387 partner limits assumed): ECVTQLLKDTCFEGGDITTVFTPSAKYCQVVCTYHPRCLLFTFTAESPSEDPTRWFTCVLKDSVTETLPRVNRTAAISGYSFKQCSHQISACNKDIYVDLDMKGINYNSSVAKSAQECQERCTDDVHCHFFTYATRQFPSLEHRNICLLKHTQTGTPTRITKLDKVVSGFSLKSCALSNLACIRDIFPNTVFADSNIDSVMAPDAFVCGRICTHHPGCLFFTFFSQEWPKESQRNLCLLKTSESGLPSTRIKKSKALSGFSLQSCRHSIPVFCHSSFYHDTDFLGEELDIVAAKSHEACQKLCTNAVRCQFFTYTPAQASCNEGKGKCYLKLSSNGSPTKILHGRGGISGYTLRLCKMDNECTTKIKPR
# Chain of Human plasma kallikrein (P03952 391-638): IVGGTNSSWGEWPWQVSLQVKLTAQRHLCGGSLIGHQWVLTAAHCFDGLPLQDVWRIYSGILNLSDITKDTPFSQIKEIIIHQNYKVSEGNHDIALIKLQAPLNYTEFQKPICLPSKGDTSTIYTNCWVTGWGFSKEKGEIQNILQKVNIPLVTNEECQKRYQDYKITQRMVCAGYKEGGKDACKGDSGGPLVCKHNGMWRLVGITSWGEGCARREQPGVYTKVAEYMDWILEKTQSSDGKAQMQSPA
# Chain of Human plasma kallikrein (P03952 20-390 partner): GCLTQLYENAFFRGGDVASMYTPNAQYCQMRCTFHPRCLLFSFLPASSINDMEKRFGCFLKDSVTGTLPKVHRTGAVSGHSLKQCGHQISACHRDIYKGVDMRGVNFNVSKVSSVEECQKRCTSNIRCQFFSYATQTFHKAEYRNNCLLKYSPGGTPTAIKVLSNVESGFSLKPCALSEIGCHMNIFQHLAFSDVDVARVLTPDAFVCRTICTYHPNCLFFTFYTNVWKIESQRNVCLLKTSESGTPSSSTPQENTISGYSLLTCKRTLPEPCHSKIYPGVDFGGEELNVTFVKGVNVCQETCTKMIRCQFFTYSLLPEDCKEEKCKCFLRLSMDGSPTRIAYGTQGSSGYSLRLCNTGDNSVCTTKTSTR
IC50 (Human plasma kallikrein),IC50 (human Factor XIa),SMILES
20.7 nM,2050 nM,"Cc1ncc(-c2c(C(F)F)ccc(Cl)c2F)nc1C(=O)Nc1cnn(C(CO)c2cnc(N3C[C@H]4C[C@H]4C3=O)nc2)c1 (single isomer, unassigned) [Example 165, 6-(3-Chloro-6-(difluoromethyl)-2-fluorophenyl)-N-(1-((S or R)-2-hydroxy-1-(2-((1R,5S)-2-oxo-3-azabicyclo[3.1.0]hexan-3-yl)pyrimidin-5-yl)ethyl)-1H-pyrazol-4-yl)-3-methylpyrazine-2-carboxamide]"
6.5 nM,3110 nM,"Cc1nc(N2C[C@H]3C[C@H]3C2=O)ncc1C1(n2cc(NC(=O)c3nc(-c4c(C(F)F)ccc(Cl)c4F)cnc3C)cn2)CCC1 [Example 188, 6-(3-Chloro-6-(difluoromethyl)-2-fluorophenyl)-3-methyl-N-(1-(1-(4-methyl-2-((1R,5S)-2-oxo-3-azabicyclo[3.1.0]hexan-3-yl)pyrimidin-5-yl)cyclobutyl)-1H-pyrazol-4-yl)pyrazine-2-carboxamide]"
0.6 nM,1630 nM,"Cc1cc(C(C)n2cc(NC(=O)c3cncc(-c4c(C(F)F)ccc(Cl)c4F)n3)cn2)cnc1N1C[C@H]2C[C@H]2C1=O (single isomer, unassigned) [Example 66, 6-(3-Chloro-6-(difluoromethyl)-2-fluorophenyl)-N-(1-((S or R)-1-(5-methyl-6-((1R,5S)-2-oxo-3-azabicyclo[3.1.0]hexan-3-yl)pyridin-3-yl)ethyl)-1H-pyrazol-4-yl)pyrazine-2-carboxamide]"
0.9 nM,2030 nM,"Cc1cc(C(C)n2cc(NC(=O)c3nc(-c4c(C(F)F)ccc(Cl)c4F)cnc3C(C)O)cn2)cnc1N1C[C@H]2C[C@H]2C1=O (single isomer, unassigned) [Example 213, 6-(3-Chloro-6-(difluoromethyl)-2-fluorophenyl)-3-((Ror S)-1-hydroxyethyl)-N-(1-((R or S)-1-(5-methyl-6-((1R,5S)-2-oxo-3-azabicyclo[3.1.0]hexan-3-yl)pyridin-3-yl)ethyl)-1H-pyrazol-4-yl)pyrazine-2-carboxamide]"
5.4 nM,4890 nM,"Cc1ncc(-c2c(C(F)F)ccc(Cl)c2F)nc1C(=O)Nc1cnn(C(CO)c2cnc(N3C[C@H]4C[C@H]4C3=O)nc2)c1 (single isomer, unassigned) [Example 164, 6-(3-Chloro-6-(difluoromethyl)-2-fluorophenyl)-N-(1-((R or S)-2-hydroxy-1-(2-((1R,5S)-2-oxo-3-azabicyclo[3.1.0]hexan-3-yl)pyrimidin-5-yl)ethyl)-1H-pyrazol-4-yl)-3-methylpyrazine-2-carboxamide]"
1.1 nM,111 nM,"Cc1ncc(-c2c(C(F)F)ccc(Cl)c2F)nc1C(=O)Nc1cnn(Cc2cnc(N3C[C@H]4C[C@H]4C3=O)c(N)c2)c1 [Example 191, N-(1-((5-Amino-6-((1R,5S)-2-oxo-3-azabicyclo[3.1.0]hexan-3-yl)pyridin-3-yl)methyl)-1H-pyrazol-4-yl)-6-(3-chloro-6-(difluoromethyl)-2-fluorophenyl)-3-methylpyrazine-2-carboxamide]"
6 nM,6560 nM,"Cc1ncc(-c2c(C(F)F)ccc(Cl)c2F)nc1C(=O)Nc1cnn(C(C)c2cnc(N3C[C@H]4C[C@H]4C3=O)c3c2OC(F)(F)O3)c1 (single isomer, unassigned) [Example 246, 6-(3-Chloro-6-(difluoromethyl)-2-fluorophenyl)-N-(1-((R or S)-1-(2,2-difluoro-4-((1R,5S)-2-oxo-3-azabicyclo[3.1.0]hexan-3-yl)-[1,3]dioxolo[4,5-c]pyridin-7-yl)ethyl)-1H-pyrazol-4-yl)-3-methylpyrazine-2-carboxamide]"
1.4 nM,157 nM,"CC(O)c1ncc(-c2c(C(F)F)ccc(Cl)c2F)nc1C(=O)Nc1cnn(Cc2cnc(N3C[C@H]4C[C@H]4C3=O)c3c2OCO3)c1 (single isomer, unassigned) [Example 254, 6-(3-Chloro-6-(difluoromethyl)-2-fluorophenyl)-3-((R or S)-1-hydroxyethyl)-N-(1-((4-((1R,5S)-2-oxo-3-azabicyclo[3.1.0]hexan-3-yl)-[1,3]dioxolo[4,5-c]pyridin-7-yl)methyl)-1H-pyrazol-4-yl)pyrazine-2-carboxamide]"
5.1 nM,1920 nM,"Cc1ccc(Cl)c(F)c1-c1cncc(C(=O)Nc2cnn(C(C)c3cnc(N4C[C@H]5C[C@H]5C4=O)nc3C)c2)n1 (single isomer, unassigned) [Example 109, 6-(3 -Chloro-2-fluoro-6-methylphenyl)-N-(1-((R or S)-1-(4-methyl-2-((1R,5S)-2-oxo-3-azabicyclo[3.1.0]hexan-3-yl)pyrimidin-5-yl)ethyl)-1H-pyrazol-4-yl)pyrazine-2-carboxamide]"
9.2 nM,> 10000 nM,"Cc1ncc(-c2c(C(F)F)ccc(Cl)c2F)nc1C(=O)Nc1cnn(C(CO)c2ccc(N3CC4CC4C3=O)nc2)c1 (single isomer, unassigned) [Example 163, 6-(3-Chloro-6-(difluoromethyl)-2-fluorophenyl)-N-(1-((S or R)-2-hydroxy-1-(6-((1S,5R or 1R,5S)-2-oxo-3-azabicyclo[3.1.0]hexan-3-yl)pyridin-3-yl)ethyl)-1H-pyrazol-4-yl)-3-methylpyrazine-2-carboxamide]"
4.3 nM,5670 nM,"Cc1cc(Cn2ncc(NC(=O)c3nc(-c4c(C(F)F)ccc(Cl)c4F)cnc3C)n2)cnc1N1C[C@H]2C[C@H]2C1=O [Example 187, 6-(3-Chloro-6-(difluoromethyl)-2-fluorophenyl)-3-methyl-N-(2-((5-methyl-6-((1R,5S)-2-oxo-3-azabicyclo[3.1.0]hexan-3-yl)pyridin-3-yl)methyl)-2H-1,2,3-triazol-4-yl)pyrazine-2-carboxamide]"
1.4 nM,1380 nM,"Cc1ncc(-c2c(C(F)F)ccc(Cl)c2F)nc1C(=O)Nc1cnn(Cc2cnc(N3C[C@H]4C[C@H]4C3=O)c(C)n2)n1 [Example 186, 6-(3-Chloro-6-(difluoromethyl)-2-fluorophenyl)-3-methyl-N-(2-((6-methyl-5-((1R,5S)-2-oxo-3-azabicyclo[3.1.0]hexan-3-yl)pyrazin-2-yl)methyl)-2H-1,2,3-triazol-4-yl)pyrazine-2-carboxamide]"
10.5 nM,3110 nM,"Cc1nc(N2C[C@H]3C[C@H]3C2=O)ncc1Cn1cc(NC(=O)c2cncc(-c3c(C(F)F)ccc(Cl)c3F)n2)cn1 [Example 24, 6-(3-Chloro-6-(difluoromethyl)-2-fluorophenyl)-N-(1-((4-methyl-2-((1R,5S)-2-oxo-3-azabicyclo[3.1.0]hexan-3-yl)pyrimidin-5-yl)methyl)-1H-pyrazol-4-yl)pyrazine-2-carboxamide]"
49.1 nM,2880 nM,"Cc1cc(N2C[C@H]3C[C@H]3C2=O)ccc1C(C)n1cc(NC(=O)c2cncc(-c3c(C(F)F)ccc(Cl)c3F)n2)cn1 (single isomer, unassigned) [Example 99, 6-(3-Chloro-6-(difluoromethyl)-2-fluorophenyl)-N-(1-((R or S)-1-(2-methyl-4-((1R,5S)-2-oxo-3-azabicyclo[3.1.0]hexan-3-yl)phenyl)ethyl)-1H-pyrazol-4-yl)pyrazine-2-carboxamide]"
73.4 nM,4510 nM,"Cc1nc(N2C[C@H]3C[C@H]3C2=O)ncc1C(C)n1cc(NC(=O)c2nc(-c3c(C(F)F)ccc(Cl)c3F)cnc2C)cn1 (single isomer, unassigned) [Example 43]"
0.9 nM,755 nM,"Cc1ncc(-c2c(C(F)F)ccc(Cl)c2F)nc1C(=O)Nc1cnn(Cc2cnc(N3C[C@H]4C[C@H]4C3=O)c(C)n2)c1 [Example 46, 6-(3-Chloro-6-(difluoromethyl)-2-fluorophenyl)-3-methyl-N-(1-((6-methyl-5-((1R,5S)-2-oxo-3-azabicyclo[3.1.0]hexan-3-yl)pyrazin-2-yl)methyl)-1H-pyrazol-4-yl)pyrazine-2-carboxamide]"
0.9 nM,162 nM,"Cc1nc(N2C[C@H]3C[C@H]3C2=O)ncc1Cn1cc(NC(=O)c2nc(-c3c(C(F)F)ccc(Cl)c3F)cnc2CO)cn1 [Example 156, 6-(3-Chloro-6-(difluoromethyl)-2-fluorophenyl)-3-(hydroxymethyl)-N-(1-((4-methyl-2-((1R,5S)-2-oxo-3-azabicyclo[3.1.0]hexan-3-yl)pyrimidin-5-yl)methyl)-1H-pyrazol-4-yl)pyrazine-2-carboxamide]"
0.5 nM,545 nM,"Cc1cc(C(C)n2cc(NC(=O)c3nc(-c4c(OC(F)F)ccc(Cl)c4F)cnc3C)cn2)cnc1N1C[C@H]2C[C@H]2C1=O (single isomer, unassigned) [Example 131, 6-(3-Chloro-6-(difluoromethoxy)-2-fluorophenyl)-3-methyl-N-(1-((S or R)-1-(5-methyl-6-((1R,5S)-2-oxo-3-azabicyclo[3.1.0]hexan-3-yl)pyridin-3-yl)ethyl)-1H-pyrazol-4-yl)pyrazine-2-carboxamide]"
0.4 nM,186 nM,"Cc1cc(C(C)n2cc(NC(=O)c3nc(-c4c(C(F)F)ccc(Cl)c4F)cnc3C(C)O)cn2)cnc1N1C[C@H]2C[C@H]2C1=O (single isomer, unassigned) [Example 210, 6-(3-Chloro-6-(difluoromethyl)-2-fluorophenyl)-3-((S or R)-1-hydroxyethyl)-N-(1-((S or R)-1-(5-methyl-6-((1R,5S)-2-oxo-3-azabicyclo[3.1.0]hexan-3-yl)pyridin-3-yl)ethyl)-1H-pyrazol-4-yl)pyrazine-2-carboxamide]"
39 nM,4300 nM,"CC(c1cnc(N2CC3CC3C2=O)nc1)n1cc(NC(=O)c2cncc(-c3c(OC(F)F)ccc(Cl)c3F)n2)cn1 (single isomer, unassigned) [Example 71, 6-(3-Chloro-6-(difluoromethoxy)-2-fluorophenyl)-N-(1-((S or R)-1-(2-((1R,5S or 1S,5R)-2-oxo-3-azabicyclo[3.1.0]hexan-3-yl)pyrimidin-5-yl)ethyl)-1H-pyrazol-4-yl)pyrazine-2-carboxamide]"
